Results reported in patent US11352350B2, “IRAK degraders and uses thereof” (Kymera Therapeutics, Inc., priority 2018, dated 2022).

Legend:
[1] = test system: OCI-LY10; assay: CTG Cell Viability Assay - OCI-LY10; format: cell-based, human; details: Homo sapiens, OCI-Ly10, 96 h, OCI-LY10, 4 days; read-out: CTG Cell Viability Assay - OCI-LY10: Average external-IC50
Outline: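 OCI-LY10 cells exposed to 9-dose, 1:3 dilutions from 10 μM top (0.2% DMSO) for 4 days at 37° C, 5% CO2. Viability by CellTiter-Glo luminescence; IC50 from three-parameter logistic fit.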

[2] = test system: IL-6; assay: IL-6 secretion in hPBMC using R848 stimulation; format: cell-based, human; details: hPBMC, R848 as stim, t = 20 h
[3] = target: T1, IRAK4 (Homo sapiens (Human), UniProt Q9NWZ3); assay: hPBMC IRAK4 degradation flow assay; format: cell-based; details: hPBMC monocyte
T1 sequence (Q9NWZ3 whole entry): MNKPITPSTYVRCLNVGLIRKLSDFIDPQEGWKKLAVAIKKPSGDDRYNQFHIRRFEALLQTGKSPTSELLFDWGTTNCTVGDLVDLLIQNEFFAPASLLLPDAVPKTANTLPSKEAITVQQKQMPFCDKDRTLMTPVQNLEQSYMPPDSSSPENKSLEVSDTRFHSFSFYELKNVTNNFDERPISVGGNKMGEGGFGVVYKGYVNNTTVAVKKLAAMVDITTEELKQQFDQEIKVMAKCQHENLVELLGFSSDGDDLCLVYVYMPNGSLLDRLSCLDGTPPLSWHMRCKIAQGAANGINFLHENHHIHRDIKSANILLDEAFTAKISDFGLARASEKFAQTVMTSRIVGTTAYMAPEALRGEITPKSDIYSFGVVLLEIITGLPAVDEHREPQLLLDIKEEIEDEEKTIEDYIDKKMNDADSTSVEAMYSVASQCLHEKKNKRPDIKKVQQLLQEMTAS
Outline: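 Thawed human PBMCs treated with 10-point, 5-fold compound dilutions (0.1% DMSO) at 37° C. for 20 hours or 4 hours. IRAK4 measured by flow MFI in CD14+ monocytes and CD14− lymphocytes, normalized to DMSO and 10 μM 20-hour control; DC50 and max degradation from 4-parameter logistic fit.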

[4] = target: T1, IRAK4; assay: IRAK4 MSD degradation in OCI-LY10; format: cell-based
Outline: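 OCI-LY10 cells treated with 8-point 1:3 dilutions (top 1 to 10 μM final) for 4 to 24 h at 37° C. Lysate IRAK4 measured by MSD sandwich immunoassay (2H9 capture, Y279 detection, SULFO-TAG anti-rabbit). DC50 from three-parameter logistic fit.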

[5] = 20 hr, flow assay, read-out: IRAK4 degradation in hPBMC monocyte at 20 hr: Average external Abs DC50
[6] = OCI-LY10, 4 hrs, MSD, read-out: IRAK4 MSD degradation in OCI-LY10 at 4 hrs: Average external-Abs DC50
[7] = 20 hrs, read-out: IRAK4 degradation in hPBMC monocyte: DC50
[8] = OCI-LY10, 4 hrs, read-out: IRAK4 MSD degradation in OCI-LY10 at 4 hrs: DC50

SMILES	IC50 [1] [nM]	IC50 ([2]; Homo sapiens, 20 h) [nM]	DC50 [3, 5] [nM]	DC50 [4, 6] [nM]	DC50 [3, 7] [nM]	DC50 [4, 8] [nM]	IC50 [2] [nM]	DC50 ([4]; OCI-LY10, 24 hrs, MSD, read-out: IRAK4 MSD degradation in OCI-LY10 at 24 hrs: Average external-Abs DC50) [nM]
Cn1c(=O)n(C2CCC(=O)NC2=O)c2cccc(CCC(=O)C3CC4(CCN(C[C@H]5CC[C@H](n6cc(NC(=O)c7cnn8ccc(N9C[C@H]%10C[C@@H]9CO%10)nc78)c(C(F)F)n6)CC5)CC4)C3)c21 (stereo partly shown) [I-415]	> 1000	< 1	< 10	< 10	–	–	–	–
CN(C[C@H]1CC[C@H](C2N=C(NC(=O)c3cnn4ccc(N5C[C@H]6C[C@@H]5CO6)nc34)C(C(F)F)=N2)CC1)C1CCC2(CC1)CC(Cc1cccc3c1n(C)c(=O)n3C1CCC(=O)NC1=O)C2 (stereo partly shown) [I-554]	> 1000	< 1	–	–	< 10	10 to 100	–	–
Cn1c(=O)n(C2CCC(=O)NC2=O)c2cccc(CC[C@H]3CN(C[C@H]4CC[C@H](n5cc(NC(=O)c6cnn7ccc(N8CCCOCC8)nc67)c(C(F)F)n5)CC4)CCO3)c21 (stereo partly shown) [I-516]	> 1000	1 to 10	–	–	< 10	10 to 100	–	–
Cn1c(=O)n(C2CCC(=O)NC2=O)c2cccc(CN3CCC(OC4CCN(C[C@H]5CC[C@H](n6cc(NC(=O)c7cnn8ccc(N9C[C@H]%10C[C@@H]9CO%10)nc78)c(C(F)F)n6)CC5)CC4)CC3)c21 (stereo partly shown) [I-513]	> 1000	< 1	–	–	< 10	< 10	–	–
CN(C[C@@H]1CN(Cc2cccc3c2n(C)c(=O)n3C2CCC(=O)NC2=O)CCO1)C[C@H]1CC[C@H](n2cc(NC(=O)c3cnn4ccc(N5C[C@H]6C[C@@H]5CO6)nc34)c(C(F)F)n2)CC1 (stereo partly shown) [I-411]	> 1000	< 1	10 to 100	> 1000	–	–	–	–
Cn1c(=O)n(C2CCC(=O)NC2=O)c2cccc(C#CCCCNC[C@H]3CC[C@H](n4cc(NC(=O)c5cnn6ccc(N7C[C@H]8C[C@@H]7CO8)nc56)c(C(F)F)n4)CC3)c21 (stereo partly drawn) [I-518, N-[3-(difluoromethyl)-1-[4-[[5-[1-(2,6-dioxo-3-piperidyl)-3-methyl-2-oxo-benzimidazol-4-yl]pent-4-ynylamino]methyl]cyclohexyl]pyrazol-4-yl]-5-[(1R)-2-oxa-5-azabicyclo[2.2.1]heptan-5-yl]pyrazolo[1,5-a]pyrimidine-3-carboxamide]	> 1000	1 to 10	–	–	< 10	10 to 100	–	–
Cn1c(=O)n(C2CCC(=O)NC2=O)c2cccc(CCCN3CCOC4(CCN(C[C@H]5CC[C@H](n6cc(NC(=O)c7cnn8ccc(N9C[C@H]%10C[C@@H]9CO%10)nc78)c(C(F)F)n6)CC5)CC4)C3)c21 (stereo partly shown) [I-450]	> 1000	–	–	–	< 10	10 to 100	1 to 10	–
Cn1c(=O)n(C2CCC(=O)NC2=O)c2cccc(CCCC3CCN(C[C@H]4CC[C@H](n5cc(NC(=O)c6cnn7ccc(N8C[C@H]9C[C@@H]8CO9)nc67)c(C(F)F)n5)CC4)CC3)c21 (stereo partly shown) [I-416]	> 1000	< 1	< 10	< 10	–	–	–	–
CN(CC(CCCOCCCc1cccc2c1n(C)c(=O)n2C1CCC(=O)NC1=O)C(=O)O)C[C@H]1CC[C@H](n2cc(NC(=O)c3cnn4ccc(N5C[C@H]6C[C@@H]5CO6)nc34)c(C(F)F)n2)CC1 (stereo partly drawn) [I-495, 2-[[[4-[3-(Difluoromethyl)-4-[[5-[(1R,4R)-2-oxa-5-azabicyclo [2.2.1]heptan-5-yl]pyrazolo [1,5-a]pyrimidine-3-carbonyl]amino]pyrazol-1-yl]cyclohexyl]methyl-methyl-amino]methyl]-5-[3-[1-(2,6-dioxo-3-piperidyl)-3-methyl-2-oxo-benzimidazol-4-yl]propoxy]pentanoic acid]	> 1000	10 to 100	–	–	10 to 100	100 to 1000	–	–
CC[C@@H]1[C@H](F)C(=O)N[C@@H]1COc1ncc(C#C[C@H]2CC[C@H](CN(C)CCCOCCCc3ccc4c(c3)n(C)c(=O)n4C3CCC(=O)NC3=O)CC2)c2cc(C(N)=O)c(OC)cc12 (stereo partly shown) [I-185]	> 1000	< 1	< 10	10 to 100	–	–	–	10 to 100
Cn1c(=O)n(C2CCC(=O)NC2=O)c2cccc(CCCN3CCC4(CC3)CN(C(=O)[C@H]3CC[C@H](n5cc(NC(=O)c6cnn7ccc(N8C[C@H]9C[C@@H]8CO9)nc67)c(C(F)F)n5)CC3)C4)c21 (stereo partly shown) [I-422]	> 1000	< 1	< 10	10 to 100	–	–	–	–
Cn1c(=O)n(C2CCC(=O)NC2=O)c2cccc(CC3CC4(CCN(C(=O)c5ccc(-n6cc(NC(=O)c7cnn8ccc(N9C[C@H]%10C[C@@H]9CO%10)nc78)c(C(F)F)n6)cc5)CC4)C3)c21 (stereo partly shown) [I-423]	> 1000	1 to 10	< 10	100 to 1000	–	–	–	–
Cn1c(=O)n(C2CCC(=O)NC2=O)c2cccc(CCCN3CCOC4(CCN(C(=O)c5ccc(-n6cc(NC(=O)c7cnn8ccc(N9C[C@H]%10C[C@@H]9CO%10)nc78)c(C(F)F)n6)cc5)CC4)C3)c21 (stereo partly shown) [I-424]	> 1000	1 to 10	< 10	< 10	–	–	–	–
Cn1c(=O)n(C2CCC(=O)NC2=O)c2cccc(C#CCC3CCN(C[C@H]4CC[C@H](C5N=C(NC(=O)c6cnn7ccc(N8CCOC(C)(C)C8)cc67)C(C(F)F)=N5)CC4)CC3)c21 (stereo partly shown) [I-532]	> 1000	1 to 10	–	–	10 to 100	10 to 100	–	–
Cn1c(=O)n(C2CCC(=O)NC2=O)c2cccc(CC[C@@H]3CN(C[C@H]4CC[C@H](C5N=C(NC(=O)c6cnn7ccc(N8CCCOCC8)nc67)C(C(F)F)=N5)CC4)CCO3)c21 (stereo partly shown) [I-514]	> 1000	< 1	–	–	< 10	< 10	–	–
CN(CCCOCCCc1cccc2c1n(C)c(=O)n2C1CCC(=O)NC1=O)C[C@H]1CC[C@H](n2cc(NC(=O)c3cnn4ccc(N5CCCCC5)nc34)c(C(F)F)n2)CC1 (stereo partly shown) [I-419]	> 1000	1 to 10	< 10	10 to 100	–	–	–	–
Cn1c(=O)n(C2CCC(=O)NC2=O)c2cccc(C#CCN3CCC4(CC3)CN(C(=O)[C@H]3CC[C@H](n5cc(NC(=O)c6cnn7ccc(N8C[C@H]9C[C@@H]8CO9)nc67)c(C(F)F)n5)CC3)C4)c21 (stereo partly shown) [I-418]	> 1000	1 to 10	10 to 100	10 to 100	–	–	–	–
Cn1c(=O)n(C2CCC(=O)NC2=O)c2cccc(C#CCCCOCc3ccc(-n4cc(NC(=O)c5cnn6ccc(N7C[C@H]8C[C@@H]7CO8)nc56)c(C(F)F)n4)cc3)c21 (stereo partly drawn) [I-498, N-[3-(difluoromethyl)-1-[4-[5-[1-(2,6-dioxo-3-piperidyl)-3-methyl-2-oxo-benzimidazol-4-yl]pent-4-ynoxymethyl]phenyl]pyrazol-4-yl]-5-[(1R,4R)-2-oxa-5-azabicyclo [2.2.1]heptan-5-yl] pyrazolo[1,5-a]pyrimidine-3-carboxamide]	> 1000	10 to 100	–	–	100 to 1000	100 to 1000	–	–
Cn1c(=O)n(C2CCC(=O)NC2=O)c2cccc(CCC3CC4(CCN(C[C@H]5CC[C@H](n6cc(NC(=O)c7cnn8ccc(N9C[C@H]%10C[C@@H]9CO%10)nc78)c(C(F)F)n6)CC5)CC4)C3)c21 (stereo partly shown) [I-486]	> 1000	< 1	–	–	< 10	< 10	–	–
Cn1c(=O)n(C2CCC(=O)NC2=O)c2cccc(CCC3CCN(C[C@H]4CC[C@H](n5cc(NC(=O)c6cnn7ccc(N8C[C@H]9C[C@@H]8CO9)nc67)c(C(F)F)n5)CC4)CC3)c21 (stereo partly shown) [I-487]	> 1000	< 1	–	–	< 10	10 to 100	–	–
Cn1c(=O)n(C2CCC(=O)NC2=O)c2cccc(CN3C[C@H]4CC[C@@H](C3)N4CC[C@H]3CC[C@H](n4cc(NC(=O)c5cnn6ccc(N7C[C@H]8C[C@@H]7CO8)nc56)c(C(F)F)n4)CC3)c21 (stereo partly shown) [I-511]	> 1000	1 to 10	–	–	< 10	10 to 100	–	–
Cn1c(=O)n(C2CCC(=O)NC2=O)c2cccc(CCN3CC4(CCN(C(=O)[C@H]5CC[C@H](n6cc(NC(=O)c7cnn8ccc(N9C[C@H]%10C[C@@H]9CO%10)nc78)c(C(F)F)n6)CC5)CC4)C3)c21 (stereo partly shown) [I-420]	< 50	< 1	< 10	< 10	–	–	–	–
C[C@H](C#Cc1cccc2c1N(C)C(=O)C2C1CCC(=O)NC1=O)OC1CCN(C[C@H]2CC[C@H](n3cc(NC(=O)c4cnn5ccc(N6C[C@H]7C[C@@H]6CO7)nc45)c(C(F)F)n3)CC2)CC1 (stereo partly shown) [I-555]	> 1000	1 to 10	–	–	< 10	< 10	–	–
Cn1c(=O)n(C2CCC(=O)NC2=O)c2cccc(CCCOC3CCN(C[C@H]4CC[C@H](n5cc(NC(=O)c6cnn7ccc(N8CCCOCC8)nc67)c(C(F)F)n5)CC4)CC3)c21 (stereo partly shown) [I-515]	> 1000	< 1	–	–	< 10	< 10	–	–
